According to the NIST ThermoML archive (doi:10.1021/je700755t):

What was measured:
[1] = 101 kPa, Liquid; for viscosity: Capillary tube (Ostwald / Ubbelohde) method
[2] = xn = mol fraction of the nth substance listed; conditions: 101 kPa, Liquid, x2 = 0; for viscosity: Capillary tube (Ostwald / Ubbelohde) method

CN(C)C=O [dimethylformamide]
[1]
Conditions | mass density [kg/m3] | viscosity [mPa·s]
303.15 K | 939.45 | 0.76
313.15 K | 929.86 | 0.675
323.15 K | 920.92 | 0.608
333.15 K | 910.64 | 0.552
343.15 K | 901.72 | 0.502
353.15 K | 891.44 | 0.46

CC(=O)O [acetic acid]
[1]
Conditions | mass density [kg/m3] | viscosity [mPa·s]
303.15 K | 1038.66 | 1.059
313.15 K | 1027.37 | 0.92
323.15 K | 1016.08 | 0.804
333.15 K | 1005.04 | 0.709
343.15 K | 993.69 | 0.632
353.15 K | 982.95 | 0.57

CN(C)C=O [dimethylformamide] + CC(=O)O
[2]
Conditions | mass density [kg/m3] | viscosity [mPa·s]
303.15 K | 939.45 | 0.76
313.15 K | 929.86 | 0.675
323.15 K | 920.92 | 0.608
333.15 K | 910.64 | 0.552
343.15 K | 901.72 | 0.502
353.15 K | 891.44 | 0.46

CN(C)C=O [dimethylformamide] + O=CO
[2]
Conditions | mass density [kg/m3] | viscosity [mPa·s]
303.15 K | 939.45 | 0.76
313.15 K | 929.86 | 0.675
323.15 K | 920.92 | 0.608
333.15 K | 910.64 | 0.552
343.15 K | 901.72 | 0.502
353.15 K | 891.44 | 0.46

O=CO [formic acid]
[1]
Conditions | mass density [kg/m3] | viscosity [mPa·s]
303.15 K | 1205.07 | 1.437
313.15 K | 1192.81 | 1.205
323.15 K | 1180.63 | 1.022
333.15 K | 1167.44 | 0.879
343.15 K | 1154.99 | 0.766
353.15 K | 1142.08 | 0.677
